According to article PMC8016939 (2021):

Key:
[1] = system: Baby Spinach (bSP) (RNA, aptamer) GGUGAAGGACGGGUCCAGUAGUUCGCUACUGUUGAGUAGAGUGUGAGCUCC; assay: fluorescence titration, 1:1 model; settings: 50 mM KCl, 5 mM MgCl2; 10 mM HEPES pH 7.5, 2 µM DFHBI, flow-cell; apparent (one-site model)
[2] = system: Baby Spinach (bSP) (RNA, aptamer) GGUGAAGGACGGGUCCAGUAGUUCGCUACUGUUGAGUAGAGUGUGAGCUCC; assay: fluorescence titration plus absorption spectra, multiple-site model; settings: 50 mM KCl, 5 mM MgCl2; 10 mM HEPES pH 7.5, 2 µM DFHBI, flow-cell; site 1 of 2 (fluorescent complex); derived as K x p, p = 1.8

- Kd [1]: 4.4 µM
- Kd [2]: 7.9 ± 0.2 µM
Compound: CC1=N/C(=C\c2cc(F)c(O)c(F)c2)C(=O)N1C
